In ChEMBL document CHEMBL1201862, “PubChem BioAssay data set” (2004):
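Briefly, cells in 96-well plates were exposed to five compound concentrations for 48 h, and endpoints were estimated by linear interpolation. GI50: concentration for 50% inhibition of growth.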 Activity calls are given as the source filed them. Cut-off read from the data, not from the text of the source: active = GI50 up to about 1.1 µM and inactive = higher.

What was measured:
Assay in all cases: NCI-60 cell line screen, 48 h
[1] = tested on: HT-29
[2] = tested on: SK-MEL-2
[3] = tested on: HCT-15
[4] = tested on: RPMI-8226
[5] = tested on: NCI-H23
[6] = tested on: HCC 2998
[7] = tested on: SF-295
[8] = tested on: UO-31
[9] = tested on: HCT-116
[10] = tested on: KM12
[11] = tested on: A549
[12] = tested on: CCRF-CEM
[13] = tested on: SF-268
[14] = tested on: SNB-19
[15] = tested on: SN12C
[16] = tested on: U-251
[17] = tested on: OVCAR-5
[18] = tested on: EKVX
[19] = tested on: UACC-257
[20] = tested on: SK-MEL-28

Structure (SMILES)	GI50 [1]	GI50 [2]	GI50 [3] [µM]	GI50 [4]	GI50 [5]	GI50 [6]	GI50 [7]	GI50 [8]	GI50 [9]	GI50 [10]	GI50 [11]	GI50 [12]	GI50 [13]	GI50 [14]	GI50 [15]	GI50 [16]	GI50 [17]	GI50 [18]	GI50 [19]	GI50 [20]
C/C([O-])=C(/c1nc(-c2ccc([N+](=O)[O-])o2)no1)[n+]1cc(C)ccc1C	9.79 µM (inactive)	7.94 µM (inactive)	7.03	15.3 µM (inactive)	12.1 µM (inactive)	13 µM (inactive)	11.7 µM (inactive)	21.7 µM (inactive)	6.25 µM (inactive)	5.82 µM (inactive)	15 µM (inactive)	1.53 µM (inactive)	20.3 µM (inactive)	26.7 µM (inactive)	13.6 µM (inactive)	8.11 µM (inactive)	21.8 µM (inactive)	58.6 µM (inactive)	11.9 µM (inactive)	12.7 µM (inactive)
O=C1Oc2ccc([N+](=O)[O-])cc2N/C1=C\C(=O)c1ccccc1	> 100 µM (inactive)	27.9 µM (inactive)	> 100	> 100 µM (inactive)	> 100 µM (inactive)	28.1 µM (inactive)	> 100 µM (inactive)	> 100 µM (inactive)	> 100 µM (inactive)	55.1 µM (inactive)	> 100 µM (inactive)	43.5 µM (inactive)	> 100 µM (inactive)	> 100 µM (inactive)	62.1 µM (inactive)	78.5 µM (inactive)	> 100 µM (inactive)	> 100 µM (inactive)	> 100 µM (inactive)	> 100 µM (inactive)
Nc1nnc(N)n1NC(=O)C(=O)Nc1ccc([N+](=O)[O-])cc1	> 100 µM (inactive)	> 100 µM (inactive)	> 100	> 100 µM (inactive)	> 100 µM (inactive)	> 100 µM (inactive)	> 100 µM (inactive)	> 100 µM (inactive)	> 100 µM (inactive)	> 100 µM (inactive)	> 100 µM (inactive)	> 100 µM (inactive)	> 100 µM (inactive)	> 100 µM (inactive)	> 100 µM (inactive)	> 100 µM (inactive)	> 100 µM (inactive)	> 100 µM (inactive)	> 100 µM (inactive)	> 100 µM (inactive)
Cc1c(N=NN(C)C)cc[n+]([O-])c1C	> 100 µM (inactive)	> 100 µM (inactive)	> 100	> 100 µM (inactive)	> 100 µM (inactive)	> 100 µM (inactive)	> 100 µM (inactive)	> 100 µM (inactive)	> 100 µM (inactive)	> 100 µM (inactive)	> 100 µM (inactive)	> 100 µM (inactive)	> 100 µM (inactive)	> 100 µM (inactive)	> 100 µM (inactive)	> 100 µM (inactive)	> 100 µM (inactive)	> 100 µM (inactive)	> 100 µM (inactive)	> 100 µM (inactive)
COC(CN(C(C)=O)C1CCC2(SCCS2)c2[nH]c3ccccc3c21)OC (stereo not given)	> 100 µM (inactive)	> 100 µM (inactive)	> 100	> 100 µM (inactive)	> 100 µM (inactive)	> 100 µM (inactive)	0.207 µM (active)	> 100 µM (inactive)	> 100 µM (inactive)	> 100 µM (inactive)	> 100 µM (inactive)	> 100 µM (inactive)	> 100 µM (inactive)	> 100 µM (inactive)	> 100 µM (inactive)	> 100 µM (inactive)	> 100 µM (inactive)	72.1 µM (inactive)	0.773 µM (active)	> 100 µM (inactive)
COc1cc(C)cc2c1C(=O)C(NC(C)=O)=CC2=O	> 100 µM (inactive)	> 100 µM (inactive)	> 100	> 100 µM (inactive)	> 100 µM (inactive)	> 100 µM (inactive)	> 100 µM (inactive)	> 100 µM (inactive)	> 100 µM (inactive)	> 100 µM (inactive)	> 100 µM (inactive)	34.3 µM (inactive)	> 100 µM (inactive)	> 100 µM (inactive)	> 100 µM (inactive)	> 100 µM (inactive)	> 100 µM (inactive)	> 100 µM (inactive)	57.4 µM (inactive)	> 100 µM (inactive)
CCCCCc1cccc(=O)o1	> 100 µM (inactive)	> 100 µM (inactive)	> 100	> 100 µM (inactive)	> 100 µM (inactive)	> 100 µM (inactive)	> 100 µM (inactive)	> 100 µM (inactive)	> 100 µM (inactive)	> 100 µM (inactive)	> 100 µM (inactive)	> 100 µM (inactive)	> 100 µM (inactive)	> 100 µM (inactive)	> 100 µM (inactive)	> 100 µM (inactive)	> 100 µM (inactive)	> 100 µM (inactive)	> 100 µM (inactive)	> 100 µM (inactive)
